Source: patent US10028961B2, “Therapeutically active compounds and their methods of use” (AGIOS PHARMACEUTICALS, INC., priority 2013, dated 2018)

Tests used:
[1] = molecular target: IDH1-R132 homodimer enzyme (R132H) (Homo sapiens (Human), UniProt O75874, R132H); test: In vitro assay IDH1-R132H homodimer, NADPH depletion assay; format: biochemical
Method: (§1) The following describes the experimental procedures that can be used to obtain data on columns 3 and 6 of Table 4.
(§2) A test compound is prepared as 10 mM stock in DMSO and diluted to 50× final concentration in DMSO, for a 50 μl reaction mixture. IDH enzyme activity converting alpha-ketoglutarate to 2-hydroxyglutaric acid is measured using a NADPH depletion assay. In the assay the remaining cofactor is measured at the end of the reaction with the addition of a catalytic excess of diaphorase and resazurin, to generate a fluorescent signal in proportion to the amount of NADPH remaining. […] The reaction is started with the addition of 10 μl of Substrate Mix ([…], 5 mM alpha-ketoglutarate, in Assay Buffer) and the mixture is incubated for 90 minutes at room temperature.

IDH1 R132C = IDH1 R132C (Homo sapiens (Human), UniProt O75874, R132C); test: In vitro assay IDH1 R132C homodimer, NADPH depletion assay; format: biochemical
IDH1 R132C, sequence (O75874 whole entry R132C): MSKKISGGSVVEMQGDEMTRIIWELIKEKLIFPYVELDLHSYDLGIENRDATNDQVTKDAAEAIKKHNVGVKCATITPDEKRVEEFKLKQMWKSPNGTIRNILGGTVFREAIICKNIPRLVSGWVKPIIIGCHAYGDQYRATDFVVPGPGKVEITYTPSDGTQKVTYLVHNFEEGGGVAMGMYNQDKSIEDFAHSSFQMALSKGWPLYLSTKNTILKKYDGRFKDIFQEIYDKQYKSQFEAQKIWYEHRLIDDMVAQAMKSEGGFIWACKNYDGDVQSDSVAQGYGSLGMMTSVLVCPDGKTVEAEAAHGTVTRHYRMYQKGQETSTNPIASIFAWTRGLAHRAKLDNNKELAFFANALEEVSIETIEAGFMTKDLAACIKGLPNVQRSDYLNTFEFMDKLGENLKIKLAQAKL
Method: as §1, §2
The concentration of NADPH and alpha-ketoglutarate in the Substrate Buffer is 20 μM and 1 mM, respectively.

IDH2 R140Q = IDH2 R140Q (Homo sapiens (Human), UniProt P48735, R140Q); test: In vitro assay for IDH2m R140Q inhibitors, cofactor depletion assay; format: biochemical; conditions: IDH2 R140Q enzyme
IDH2 R140Q, sequence (P48735 40-452 R140Q): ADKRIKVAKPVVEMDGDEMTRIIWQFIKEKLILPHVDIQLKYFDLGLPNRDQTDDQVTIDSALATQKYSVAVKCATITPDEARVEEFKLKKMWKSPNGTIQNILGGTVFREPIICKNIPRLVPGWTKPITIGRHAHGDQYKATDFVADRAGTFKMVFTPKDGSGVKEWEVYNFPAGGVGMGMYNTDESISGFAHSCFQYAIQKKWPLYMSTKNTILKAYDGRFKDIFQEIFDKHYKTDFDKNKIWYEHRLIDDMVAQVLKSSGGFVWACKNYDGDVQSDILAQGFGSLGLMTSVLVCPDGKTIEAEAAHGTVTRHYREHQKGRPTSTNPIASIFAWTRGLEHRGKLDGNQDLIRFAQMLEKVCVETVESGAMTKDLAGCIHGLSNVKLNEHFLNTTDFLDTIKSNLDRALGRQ
Procedure, shortened: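 Remaining cofactor measured fluorimetrically: diaphorase/resazurin Stop Mix […], halting the reaction. Before that, mutant enzyme and compound sat 1 h at RT, then substrate mix (4 μM NADPH, 1.6 mM α-KG) was added for 16 h at RT.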

[2] = molecular target: IDH1 wt/IDH1 R132H heterodimer (Homo sapiens (Human), UniProt O75874, R132H); test: In vitro assay for IDH1m R132H inhibitors, IDH1 wt/IDH1 R132H heterodimer, NADPH depletion (diaphorase/resazurin); format: biochemical; conditions: IDH1 wt/R132H heterodimer, NADPH/NADP, not saturated; read-out: IDH1 wt/R132H NADPH/NADP IC50 not saturated
IDH1 wt/IDH1 R132H heterodimer, sequence (O75874 whole entry R132H): as the sequence (O75874 whole entry R132C) above, with C132H counted along it
IDH1 wt/IDH1 R132H heterodimer, sequence (O75874 whole entry, stated change not applied): as the sequence (O75874 whole entry R132C) above, with C132R counted along it
Procedure, shortened: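 Purified IDH1wt-his/IDH1R132H-flag heterodimer (sf9 co-expression) pre-incubated 1 hr at room temperature with compound and NADPH before α-KG addition. Remaining NADPH read by diaphorase/resazurin conversion to fluorescent resorufin, 5 min at 25° C. Compounds diluted 1:50 from DMSO; IC50 determined.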

[3] = molecular target: IDH1 wt/IDH1 R132C heterodimer (Homo sapiens (Human), UniProt O75874, R132C); test: In vitro assay for IDH1m R132C inhibitors, IDH1 wt/IDH1 R132C heterodimer, NADPH depletion (diaphorase/resazurin); format: biochemical; conditions: NADPH/NADP
IDH1 wt/IDH1 R132C heterodimer, sequence (O75874 whole entry R132C): as the sequence (O75874 whole entry R132C) above
IDH1 wt/IDH1 R132C heterodimer, sequence (O75874 whole entry, stated change not applied): as the sequence (O75874 whole entry R132C) above, with C132R counted along it
Method: The following describes the experimental procedures that can be used to obtain data on columns 2 and 4 of Table 4 and column 2 of Table 5.
In the primary reaction, the reduction of α-KG acid to 2-HG is accompanied by a concomitant oxidation of NADPH to NADP. The amount of NADPH remaining at the end of the reaction time is measured in a secondary diaphorase/resazurin reaction in which the NADPH is consumed in a 1:1 molar ratio with the conversion of resazurin to the highly fluorescent resorufin.
The mixture of compound, enzyme, and cofactor is pre-incubated at room temperature for 1 hr prior to the addition of alpha-ketoglutarate. To perform the secondary reaction, 10 uL of 1× buffer containing 36 μg/ml diaphorase and […] resazurin is added to the primary reaction and incubated for a further 5 minutes at 25° C. Florescence is read on a Spectramax platereader at Ex 544 Em 590. Compounds or compound dilutions are prepared in 100% DMSO concentration and diluted 1:50 into the final reaction. […] IC50s are determined.
IDH1 or IDH2 wildtype (wt) and mutant heterodimers are expressed and purified by methods known in the art. For example, IDH1wt/R132m heterodimer is expressed and purified as follows. Co-expression of IDH1wt-his and IDH1R132C-flag is carried out in sf9 insect cells. Cells (25 g) are resuspended in 250 ml of 50 mM Tirs, 500 mM NaCl, pH7.4, at 4° C. with stirring. Cells are disrupted with 4 passes through an M-Y110 Micro fluidizer (Microfluidics) set to 500 psi, and then centrifuged at 22,000 rcf for 20 min at 4° C. The supernatant is harvested and loaded at 15 cm/h on a Histrap FF 5*1 ml column (GE) which is equilibrated with 50 mM Tirs, 500 mM NaCl, pH7.4. Host cell contaminants are removed by washing the column with equilibration buffer followed by equilibration buffer containing 20 mM imidazole and 60 mM imidazole to baseline. IDH1wt-his homodimer and IDH1wt-his/IDH1R132C-flag are eluted by equilibration buffer containing 250 mM imidazole. Fractions eluted by 250 mM imidazole are pooled together and loaded at 15 cm/h onto a column pre-packed with 10 ml ANTI-FLAG® M2 Affinity Gel (Sigma), the column is equilibrated with 50 mM Tris, 500 mM NaCl, pH7.4. After washing with equilibration buffer, IDH1wt-his/IDH1R132C-flag heterodimer is eluted by equilibration buffer containing flag peptide (0.2 mg/ml). Aliquots of IDH1wt-his/IDH1R132C-flag are flash frozen in liquid N2 and stored at −80° C. Same conditions are used for the purification of IDH1wt-his/IDH1R132H-flag.

[4] = molecular target: IDH1-R132H homodimer enzyme (Homo sapiens (Human), UniProt O75874, R132H); test: In vitro assay IDH1-R132H homodimer, NADPH depletion assay with NADPH/NADP preincubation; format: biochemical; conditions: 5 μM NADPH and 37.5 μM NADP
IDH1-R132H homodimer enzyme, sequence (O75874 whole entry R132H): as the sequence (O75874 whole entry R132C) above, with C132H counted along it
Procedure, shortened: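 Conversion of alpha-ketoglutarate to 2-hydroxyglutarate tracked by NADPH depletion. Reaction started with 5 mM alpha-ketoglutarate plus NADPH substrate mix (50 μl total), 60 min at room temperature. Leftover NADPH quantified via diaphorase/resazurin fluorescence.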

[5] = test system: U87MG pLVX-IDH2 R140Q-neo cells; test: U87MG pLVX-IDH2 R140Q-neo cell based assay, 2-HG by LC-MS; conditions: Homo sapiens, U-87 MG
HT1080 cells = test: Cellular assay for IDH1m R132C inhibitors, 2-HG by LC-MS in HT1080 cells; format: cell-based; conditions: Homo sapiens, HT-1080
Procedure, shortened: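 HT1080 cells at 5000 cells/well were treated with compound (0.2% DMSO final). After 48 h, 2-HG in the medium was measured by LC-MS. Viability was read by CellTiter-Glo luminescence at 72 h.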

IDH1-R132 homodimer enzyme (R132H), sequence (O75874 whole entry R132H): as the sequence (O75874 whole entry R132C) above, with C132H counted along it

Row | SMILES | IC50 [1] [µM] | IC50 (IDH1 R132C) [µM] | further results
1 | C[C@@H](Nc1nc(NCC(N)=O)nc(-c2cccc(C(F)(F)F)n2)n1)C1CC1 [Compound 5] | > 1 | – | IDH1 R132C IC50 (IDH1 R132C): No Fit
2 | COCC(C)Nc1nc(N[C@H](C)C2CC2)nc(-c2cccc(C(F)(F)F)n2)n1 (some centres unmarked) [Compound 44] | 0.1 to 1 | > 1 | –
3 | C[C@@H](Nc1nc(NC2(c3ccccc3)CC2)nc(-c2cccc(C(F)(F)F)n2)n1)C1CC1 [Compound 30] | 0.05 to 0.1 | 0.1 to 1 | IC50 (IDH2 R140Q): 0.05 to 0.1 µM
4 | C[C@@H](Nc1nc(N[C@H](C)C2CC2)nc(-n2cc(I)cn2)n1)C1CC1 [Compound 279] | – | – | IC50 [2]: 0.1 to 1 µM; IC50 [3]: 0.1 to 1 µM; IC50 [4]: > 1 µM; IC50 (IDH2 R140Q): 0.1 to 1 µM; IC50 [5]: 0.1 to 1 µM
5 | C[C@@H](Nc1nc(NCc2ccccn2)nc(-c2cccc(C(F)(F)F)n2)n1)C1CC1 [Compound 24, (R)-N^2-(1-cyclopropylethyl)-N^4-(pyridin-2-ylmethyl)-6-(6-(trifluoro-methyl)pyridin-2-yl)-1,3,5-triazine-2,4-diamine] | > 1 | > 1 | –
6 | C[C@@H](Nc1nc(N[C@H]2CCCC[C@@H]2O)nc(-c2cccc(C(F)(F)F)n2)n1)C1CC1 [Compound 42] | 0.05 to 0.1 | 0.1 to 1 | –
7 | C[C@@H](Nc1nc(NC2CCOC2)nc(-c2cccc(C(F)(F)F)n2)n1)C1CC1 (some centres unmarked) [Compound 38] | 0.05 to 0.1 | 0.1 to 1 | –
8 | C[C@@H](Nc1nc(NC2CCC(F)(F)CC2)nc(-c2cccc(C(F)(F)F)n2)n1)C1CC1 [Compound 50] | < 0.05 | 0.05 to 0.1 | IC50 [2]: < 0.05 µM
9 | Fc1cc(F)cc(Nc2nc(NC3CCC(F)(F)CC3)nc(-c3nc(F)ccc3F)n2)c1 [Compound 260] | – | – | IC50 [2]: 0.1 to 1 µM; IC50 [3]: 0.05 to 0.1 µM; IC50 (IDH2 R140Q): < 0.05 µM; IC50 (HT1080 cells): > 1 µM; IC50 [5]: < 0.05 µM
10 | CC(=O)CNc1nc(N[C@H](C)C2CC2)nc(-c2cccc(C(F)(F)F)n2)n1 [Compound 15] | > 1 | > 1 | –
11 | C[C@@H](Nc1nc(NC(C)(C)C#N)nc(-c2cccc(C(F)(F)F)n2)n1)C1CC1 [Compound 37] | 0.05 to 0.1 | > 1 | –
12 | C[C@@H](Nc1nc(N[C@H](C)C2CC2)nc(-c2ccccc2F)n1)C1CC1 [Compound 6] | > 1 | 0.1 to 1 | –
13 | CC(C)Nc1nc(NC(C)C)nc(-c2cccc(C(F)(F)F)n2)n1 [Compound 3] | 0.1 to 1 | 0.05 to 0.1 | –
14 | C[C@@H](Nc1nc(N[C@H](C)C2CC2)nc(-c2cccc(N3CCC3)n2)n1)C1CC1 [Compound 51] | > 1 | > 1 | –
15 | CC(C)(CO)Nc1nc(Nc2ccnc(C(C)(F)F)c2)nc(-c2cccc(C(F)(F)F)n2)n1 [Compound 49] | > 1 | > 1 | –
16 | CC(C)CNc1nc(NC(C)(C)C#N)nc(-c2cc(O)ccc2F)n1 [Compound 86] | > 1 | > 1 | IC50 [2]: 0.05 to 0.1 µM
17 | CC(C#N)Nc1nc(N[C@H](C)C2CC2)nc(-c2cccc(C(F)(F)F)n2)n1 (some centres unmarked) [Compound 40] | 0.05 to 0.1 | 0.05 to 0.1 | –

Row | SMILES | IC50 [1] [µM] | IC50 (IDH1 R132C) [µM] | further results
18 | CC(C)Nc1nc(NC(C)(C)C#N)nc(-c2cc(O)ccc2F)n1 [Compound 35] | > 1 | > 1 | –
19 | FC1(F)CCC(Nc2nc(NC3CCC(F)(F)CC3)nc(-c3cccc(C(F)(F)F)n3)n2)CC1 [Compound 41] | 0.05 to 0.1 | > 1 | –
20 | C[C@@H](Nc1nc(N[C@H](C)C2CC2)nc(-c2cccc(C(F)(F)F)n2)n1)C(=O)O [Compound 47] | > 1 | – | IDH1 R132C IC50 (IDH1 R132C): No Fit
21 | C[C@@H](Nc1nc(N[C@H](C)C2CC2)nc(-c2cccc(Cl)n2)n1)C1CC1 [Compound 45] | < 0.05 | 0.05 to 0.1 | –
22 | FC1(F)CCC(Nc2nc(NC3CCC(F)(F)CC3)nc(-c3ccnc(C(F)(F)F)n3)n2)CC1 [Compound 270] | – | – | IC50 [2]: 0.1 to 1 µM; IC50 [3]: 0.1 to 1 µM; IC50 [4]: > 1 µM; IC50 (IDH2 R140Q): 0.1 to 1 µM; IC50 [5]: 0.1 to 1 µM
23 | CCN(CC)c1nc(N[C@H](C)C2CC2)nc(-c2cccc(Cl)n2)n1 [Compound 46] | > 1 | > 1 | –
24 | C[C@@H](Nc1nc(NC(=O)c2ccccc2)nc(-c2cccc(C(F)(F)F)n2)n1)C1CC1 [Compound 29] | 0.1 to 1 | > 1 | –
25 | CC(Nc1nc(N[C@H](C)C2CC2)nc(-c2cccc(C(F)(F)F)n2)n1)c1ccccn1 (stereo partly drawn) [Compound 25, N^2-((R)-1-cyclopropylethyl)-N^4-(1-(pyridin-2-yl)ethyl)-6-(6-(trifluoromethyl)pyridin-2-yl)-1,3,5-triazine-2,4-diamine] | > 1 | > 1 | –
26 | COc1ccc(F)c(-c2nc(NC(C)C)nc(NC(C)(C)C#N)n2)c1 [Compound 32] | > 1 | > 1 | –
27 | C[C@@H](Nc1nc(N[C@H](C)C2CC2)nc(-c2cccc(C(F)(F)F)n2)n1)C(=O)N(C)C [Compound 48] | > 1 | – | IDH1 R132C IC50 (IDH1 R132C): No Fit
28 | FC(F)(F)c1cccc(-c2nc(NC3CC4CC4C3)nc(NC3CC4CC4C3)n2)n1 (centres unmarked) [Compound 36] | < 0.05 | 0.05 to 0.1 | IC50 [2]: < 0.05 µM
29 | C[C@@H](Nc1nc(N[C@H]2CCC[C@H]2O)nc(-c2cccc(C(F)(F)F)n2)n1)C1CC1 [Compound 43] | 0.1 to 1 | > 1 | –
30 | FC1(F)CCC(Nc2nc(NC3CCC(F)(F)CC3)nc(-n3cc(Cl)cn3)n2)CC1 [Compound 302] | – | – | IC50 [2]: 0.1 to 1 µM; IC50 [3]: 0.1 to 1 µM; IC50 [4]: > 1 µM; IC50 (IDH2 R140Q): 0.1 to 1 µM; IC50 [5]: 0.1 to 1 µM
31 | Fc1ccc(F)c(-c2nc(NC3CCC(F)(F)CC3)nc(NC3CCC(F)(F)CC3)n2)n1 [Compound 276] | – | – | IC50 [2]: 0.1 to 1 µM; IC50 [3]: 0.1 to 1 µM; IC50 [4]: > 1 µM
32 | CC(Nc1nc(N[C@H](C)C2CC2)nc(-c2cccc(C(F)(F)F)n2)n1)c1cccc(C(F)(F)F)c1 (some centres unmarked) [Compound 27] | 0.05 to 0.1 | 0.1 to 1 | –
33 | C[C@@H](Nc1nc(N[C@@H]2C[C@H]2c2ccccc2)nc(-c2cccc(C(F)(F)F)n2)n1)C1CC1 [Compound 23] | 0.05 to 0.1 | 0.05 to 0.1 | –
34 | FC(F)(F)c1cccc(-c2nc(NCC3CC3)cc(NCC3CC3)n2)n1 [Compound 419] | > 1 | – | IC50 [4]: 0.1 to 1 µM; IC50 [5]: 0.1 to 1 µM
